Laboratory results published in patent US10328075B2, “Method of treatment and compounds for use therein” (Baker Heart and Diabetes Institute, priority 2015, dated 2019).
Read-outs that look alike come from different tables or passages of the source.

Molecular target: T1, hFPR2 (Homo sapiens, UniProt P25090)
T1 construct: expressed in transfected cells
T1 sequence (P25090 1-351): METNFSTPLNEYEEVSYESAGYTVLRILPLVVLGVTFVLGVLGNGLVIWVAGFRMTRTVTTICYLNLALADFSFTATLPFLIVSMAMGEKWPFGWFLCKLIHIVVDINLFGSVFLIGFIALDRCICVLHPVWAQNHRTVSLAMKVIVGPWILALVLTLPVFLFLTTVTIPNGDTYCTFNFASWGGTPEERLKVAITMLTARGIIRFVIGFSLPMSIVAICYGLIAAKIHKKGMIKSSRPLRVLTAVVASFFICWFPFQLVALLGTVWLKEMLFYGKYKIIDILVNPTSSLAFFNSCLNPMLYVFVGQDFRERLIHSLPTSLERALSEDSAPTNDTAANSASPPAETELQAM
Experiment: Akt1/2/3 (Ser473) phosphorylation in hFPR2-FlpIn-CHO cells
Format: cell-based
Conditions: for ΔLog(τ/KA), Akt 1/2/3 (Ser473) phosphorylation, hFPR2-Flpln-CHO: normalized transduction coefficient, reference agonist Cmpd43; for Log(τ/KA), Akt 1/2/3 (Ser473) phosphorylation, hFPR2-Flpln-CHO: transduction coefficient
From the text: cDNDA construct and generation of stable cell lines: cDNA in pcDNA3.1^+ encoding the human formyl peptide receptors (FPR) subtypes, hFPR1, hFPR2 and hFPR3 was obtained from Invitrogen. The sequences for 3 hFPR receptors were amplified by PCR and cloned into the Gateway entry vector, pDONR202™, using the BP clonase enzyme mix, according to the manufactures' instructions (Invitrogen Inc, Carlsbad, Calif., USA). All hFPR receptors constructs in pDONR201™ were subsequently transfected into the pEF5/FRT/V5/dest vector using the LR clonase enzyme mix (Invitrogen). Receptor constructs (pEF5/FRT/V5/dest) were used to transfect FIp-In CHO cells as described previously (Valant C et al., PNAS, 2014). Cells were selected using 500 μg/mL hydromycin to generate cell lines stably expressing each receptor construct. Cells were maintained and cultured in high glucose DMEM supplemented with 10% FBS, 16 mM HEPES and 500 μg/mL hydromycin at 37° C. under a humidified atmosphere containing 5% CO2.
In the various assays described below, cells were plated into 96-well transparent cell culture plates at 4×10^4 cells per well, cultured overnight in serum-free media at 37° C. in 5% CO2.
Measurement of Akt1/2/3 phosphorylation and Akt 1: The same lysate was used for measurement of Akt1/2/3 phosphorylation (Ser473) and Akt1 (Thr308). Cells were lysed in SureFire lysis buffer and transferred to 384-well opaque proxiplates. Under low-light conditions, a 1:10:40 (v:v:v) dilution of AlphaScreen acceptor beads:Surefire activation buffer:Surefire reaction buffer was prepared and the plate was incubated in the dark at RT for 2 h. Then, a 1:20 (v:v) dilution of AlphaScreen donor beads/dilution was prepared and incubated in the dark at RT for another 2 h, before the fluorescence signal was measured by used of a Fusion-α plate reader (PerkinElmer Life and Analytical Sciences) with standard AlphaScreen settings. Receptor mediated phosphorylation of Akt1/2/3 (Ser473) and Akt1 (Thr308) were determined using the AlphaScreen™ […] SureFire™ kit, as per as per manufacturer's instructions. Data were normalized to the maximal response elicited by 10% (v:v) FBS at the same time point.
Data analysis: All data were analysed using GraphPad Prism 6.0 (GraphPad Software, San Deigo, Calif., USA). Where appropriate, concentration-response curves were fitted to derive the maximal agonist effect (Emax), and the ligand potency estimate (pEC50), where Emax is the maximal possible response of the system (not the agonist), basal is the basal level of response in the absence of agonist, and pEC50 is the negative logarithm of the agonist concentration that gives a response halfway between Emax and basal.
In the present study, FIp-IN CHO cells and Gateway plasmid were obtained from Invitrogen Inc (Carlsbad, Calif., USA). The sequences for all 3 known human FPRs (hFPR1, hFPR2 and hFPR3) were amplified by PCR and cloned into the Gateway entry vector, pDONR202TM, using the BP clonase enzyme mix, according to the manufacturers' instructions. The hFPR pDONR201TM constructs were subsequently transfected into the pEF5/FRT/V5/dest vector using the LR clonase enzyme mix (Invitrogen). Receptor constructs (pEF5/FRT/V5/dest) were used to transfect FIp-IN CHO cells, as described previously (Valant et al. 2014). Cells were selected using 500 μg/mL hydromycin to generate cell lines stably expressing each human receptor construct. Cells were maintained and cultured in high glucose Dulbecco's modified eagle medium (DMEM) supplemented with 10% fetal bovine serum (FBS, from JRH Biosciences, Lenexa, Kans., USA) and 500 μg/mL hydromycin B (Invitrogen Inc) at 37° C. under a humidified atmosphere containing 5% CO2. Cell were plated into 96-well transparent cell culture plates at 4×10^4 cells per well, cultured overnight in serum-free media at 37° C. in 5% CO2.

[1] = Table 3, percentage of Akt1/2/3 phosphorylation elicited by 10% FBS, read-out: Emax (%), Akt 1/2/3 (Ser473), hFPR2-Flpln-CHO
[2] = Table 8, percent of response elicited by 10% FBS, read-out: Emax, Akt 1/2/3 (Ser473) phosphorylation, hFPR2-Flpln-CHO

Row | SMILES | Emax [1] [%] | EC50 (Table 3, read-out: pEC50, Akt 1/2/3 (Ser473), hFPR2-Flpln-CHO (converted)) [nM] | ΔLog(τ/KA), Akt 1/2/3 (Ser473) phosphorylation, hFPR2-Flpln-CHO (Table 8) | Emax [2] [%] | EC50 (Table 8, read-out: pEC50, Akt 1/2/3 (Ser473) phosphorylation, hFPR2-Flpln-CHO (converted)) [nM] | Log(τ/KA), Akt 1/2/3 (Ser473) phosphorylation, hFPR2-Flpln-CHO (Table 8)
1 | CC(C)C1C(NC(=O)Nc2ccc(Cl)cc2)C(=O)N(c2ccccc2)N1C (stereo not shown) [BIDI-002] | 30 ± 6 | 145 | 0.0 | 30 ± 6 | 158 | 6.9 ± 0.4
2 | CSCC[C@H](NC=O)C(=O)N[C@@H](CC(C)C)C(=O)N[C@@H](Cc1ccccc1)C(=O)O [fMLP, N-formyl-Met-Leu-Phe] | 13 ± 4 |  | −2.0 ± 0.2 | 20 ± 4 |  | 4.9 ± 0.2
